Earlier results as cited in patent US9370632B2, “Nasal treatment delivery device for mixed carbon dioxide and saline” (CLOVER HILL HEALTHCARE, INC., priority 2012, dated 2016).

Test system: subjects with SAR, nasal allergen challenge (grass or ragweed allergen)

In the case of `O=C=O` [CO(2), carbon dioxide], the ipsilateral secretion weights (20-second exposure to CO(2) 30 minutes before allergen challenge, compared with no treatment) is listed as “numerically reduced”, the sneezes (20-second exposure to CO(2) 30 minutes before allergen challenge, compared with no treatment, 12 subjects with SAR, p=0.05) is listed as “significant reduction” and the “bilateral runny nose symptoms” value (20-second exposure to CO(2) 30 minutes before allergen challenge, compared with no treatment, p=0.01) is listed as “significant reduction”. The “contralateral secretion weights (reflex secretory response, primary outcome)” value (20-second exposure to CO(2) 30 minutes before allergen challenge, compared with no treatment, p=0.04) was “significant reduction”, the “histamine levels in ipsilateral nasal secretions” value (after pretreatment with CO(2), increased significantly with sham treatment) was “did not increase” and the “sensation reported by subjects during exposure” value (during 20-second intranasal exposure to CO(2)) was “transient burning sensation”.
